Columns and labels:
VEGFR2 (KDR) = settings: 12 h treatment, compared to the DMSO negative control
Description: To further investigate the role of RTKs in compound-induced proliferation, we profiled the activity of 49 RTKs using a specialized array with the same protein lysates used for the RPPA.
Cells were seeded in 60 mm Corning CellBind dishes, cultured for 6 days, serum starved for 4 h, and treated with compounds for 12 h with 3 replicates. At the end of the experiment, cells were treated with 1 mM peroxyvanadate (1 mM NaVO3, 0.1 μg/mL Catalase, 0.003% H2O2) for 15 min prior to cell lysis. Cells were then rinsed with ice-cold 1×PBS and lysed on ice for 15 min with lysis buffer (50 mM Tris-HCl pH 7.5, 150 mM NaCl, 0.1 mM EDTA, 1 mM DTT, 1 mM NaVO3, 0.5% TritonX-100) containing protease inhibitor cocktail (Sigma). Cell lysates were mechanically homogenized using 28-gauge syringes, spun down, and adjusted to equivalent concentrations. The Proteome Profiler Human Phospho-RTK Array Kit (R&D Systems) was used to measure phosphorylation activity of 49 RTKs. Briefly, the arrays with printed anti-RTK antibodies were blocked for 1 hour and incubated with 38.8 μg of total protein lysate overnight at 4° C. The arrays were then washed and incubated with anti-phospho-tyrosine antibodies conjugated to HRP and detected via chemiluminescence. Array films were scanned and Image Studio software (LI-COR) was used to quantify intensities of each spot. […]

[1] = tested on: hiPSC-CMs (iCell Cardiomyocytes); test: Live-cell proliferation assay (change in number of cells over 6 days)
Description: Using the same live-cell proliferation assay we developed in the previous study [13], we confirmed the 5-point concentration-response profiles (0.1-10.0 μM) in three independent manufacturing lots of iCell Cardiomyocytes (FIG. 7). Briefly, hiPSC-CMs were stained with a low, non-toxic concentration of Hoechst 33342 and the same imaging fields of view were collected at both initial (day 0) and final (day 6) timepoints. We quantified the change in the number of cells, binucleation events, and DNA content distribution using the image segmentation and analysis pipeline described in the previous study [13].
ICell Cardiomyocytes (Cellular Dynamics International) were seeded in 96-well or 384-well Corning CellBind plates at approximately 2.5×10^4 to 3.5×10^4 cells/cm^2. […] Cells were cultured for all experiments in a humidified environment at 37° C. with 5% CO2.
Pharmacology Metrics—Based on concentration-dependent responses of changes in cell number, we quantified area under the curve (AUC) as the sum of the relative changes in cell number across the five concentrations of compound. As a measure of potency, we performed cubic B-spline interpolation and then calculated the minimum concentration needed to achieve 50% of the maximum effect.

[2] = tested on: hiPSC-CMs (iCell Cardiomyocytes); test: DNA content / ploidy and cell cycle phase analysis after 6 days of treatment
[3] = tested on: hiPSC-CMs (iCell Cardiomyocytes); test: DNA synthesis assay (48 h EdU incorporation)
Description: ICell Cardiomyocytes (Cellular Dynamics International) were seeded in 96-well or 384-well Corning CellBind plates at approximately 2.5×10^4 to 3.5×10^4 cells/cm^2. Cells were cultured for 2 days in iCell Cardiomyocytes Plating Medium (Cellular Dynamics International) supplemented with 1% Penicillin/Streptomycin (P/S; Gibco) followed by an additional 4 days in iCell Cardiomyocytes Maintenance Medium (Cellular Dynamics International) supplemented with 1% P/S. For all experiments, cells were first serum starved for 4 h and then treated in William's E medium without phenol red (Gibco) supplemented with Primary Hepatocyte Cell Maintenance Cocktail B (Gibco) containing P/S, ITS+, GlutaMAX, and HEPES. Cells were cultured for all experiments in a humidified environment at 37° C. with 5% CO2.
EdU incorporation and labeling with copper catalyzed click chemistry was used to measure DNA synthesis. Cells were treated in the presence of 1 μM EdU (Invitrogen) for 48 h, and subsequently fixed and permeabilized prior to incubation with the EdU click chemistry reaction mix—100 mM Tris HCL pH 7.0 (Gentrox), 4 mM CuSO4 (Sigma), 100 mM ascorbic acid (Sigma), and 5 μM Alexa Fluor 546 Azide (Click Chemistry Tools). After labelling EdU, cells were stained with anti-Cardiac Troponin T (Abcam) and DAPI (Sigma).
Custom image analysis and processing pipelines were developed and implemented in MATLAB to quantify the number of nuclei/cells, percent EdU positive objects, percent Ki67 positive objects, multinucleation, DNA content, cell cycle phases, and ploidy.
Classification—The binary segmented mask and background subtracted images were used to calculate the mean intensities of Hoechst 33342, DAPI, Cardiac-Troponin T, EdU, and Ki67 staining for each segmented object. […] Marker positivity thresholds were determined using Rosin's unimodal thresholding algorithm [63] on the mean intensity values for each segmented object.

[4] = tested on: hiPSC-CMs (iCell Cardiomyocytes); test: Multinucleation analysis after 6 days of treatment; type: cell-based, human; settings: 10 μM inhibitor alone or with C3, compared to negative control or compound treatment alone
Description: Multinucleation Analysis—Multinucleated cells were identified based on the distance between neighboring nuclei. This distance threshold was determined using Cardiac-Troponin T staining to visualize cell borders. A morphological closing operation with a circular structuring element was applied to the binary segmented mask to merge and classify nuclei in multinucleated cells.

Cc1cccc(-c2n[nH]cc2-c2ccc3ncccc3n2)n1 [C3, RepSox]
VEGFR2 (KDR) activation / expression (VEGFR2 (KDR)): induced | maximum-effect concentration ([1]; 5-point concentration response 0.1-10 μM, 6 days): 3.2 µM | proliferation (change in the number of cells over 6 days) ([1]; compound alone at Emax concentration, 6 days): induces proliferation | endoreplication cycles [2]: without additional endoreplication cycles

COc1cccc(-c2cc(=O)c3ccccc3o2)c1N [PD98059]
effect of inhibitor alone on DNA synthesis (EdU incorporation) ([3]; 10 μM inhibitor alone, unstimulated hiPSC-CMs, 48 h): modest decreases | effect of inhibitor on C3 induced DNA synthesis ([3]; 10 μM inhibitor in combination with 3.2 μM C3, 48 h): attenuated | effect of inhibitor on C3 induced proliferation (increase in cell numbers) ([1]; 10 μM inhibitor in combination with 3.2 μM C3, day 6): only INK and PI3K inhibition attenuated

CNC(=O)c1ccccc1Sc1ccc2c(/C=C/c3ccccn3)n[nH]c2c1 [axitinib]
increase in multinucleation [4]: over 2 fold

C[C@]1(O)C[C@@H](c2nc(-c3ccc4ccc(-c5ccccc5)nc4c3)c3c(N)nccn32)C1 [linsitinib]
effect of inhibitor on C3 induced DNA synthesis ([3]; 0.1 μM inhibitor in combination with 3.2 μM C3, 48 hrs): modest effect in reducing | effect of inhibitor on late-stage proliferation metrics ([1]; 0.1 μM inhibitor in combination with 3.2 μM C3, day 6): no effect

— patent US20250375434A1, “SMALL MOLECULES AND METHODS FOR INDUCING CARDIOMYOCYTE PROLIFERATION” (UNIVERSITY OF VIRGINIA PATENT FOUNDATION, priority 2024, published 2025)
